Data set [1] concerns ICR male mice. Nature of the data set: Evaluation of activity to improve learning and/or memory using Morris water maze. It is filed as in vivo. The method, then: Evaluation of Activity to Improve Learning and/or Memory Using Morris Water Maze
In experiments, ICR male mice of 6 weeks old were used. Using Morris water maze as an experiment apparatus, ability of learning and memory of space was evaluated based on the latency until a mouse escapes to a platform arranged in a pool as an index. One trial was maximally 120 seconds, and 1 session was composed of three trials in which each mouse was made to swim in the pool from three different positions. Average time needed for the escape was calculated and evaluation was made based thereon. On the first day (the first session), no drug and nothing were administered. From the second session (Day 2), Compound 1, Compound 8 or a solvent was administered. Trial was repeated for 5 days (5 sessions).
The dose of Compound 1 was 10, 30 or 100 μg/kg, and the dose of Compound 8 was 100 μg/kg. Compound 1, Compound 8 or saline which was the solvent was subcutaneously administered 30 minutes before the first trial of each session. The data was subjected to analysis of variance and significance was evaluated according to Fisher's PLSD test. The cases where P<0.05 was evaluated as significant.

For data set [2], the system named is ICR male mice. Nature of the data set: Test of learning of Step-Down type passive avoidance (MK-801-induced learning disability and memory disorder). It is filed as in vivo. The following applies: test 24 hours after training, FIG. 2. As to the method: In experiments, ICR male mice of 6 weeks old were used. The experiment apparatus comprised a plastic box sizing 25×25×30 cm (width×depth×height), a stainless steel grid for giving electrical shock, which was laid on the floor of the box, and a wooden platform sizing 4.5×4.5×3.0 cm (width×depth×height) placed on a corner on the floor grid.
Sixty minutes before the training trial, 100 or 300 μg/kg of Compound 1, or its solvent, saline, was subcutaneously administered. Thirty minutes later, 0.1 mg/kg of MK-801 which is a non-competitive antagonist of NMDA receptor, which is a compound that causes learning disability and/or memory disorder was intraperitoneally administered. Training trial was carried out by placing a mouse on the platform, and the time period until the mouse stepped down to the floor grid, that is, the Step-Down latency, was measured. Simultaneously with the attaching all of the feet of the mouse to the floor, an electrical shock of 0.6 mA was given for 2 seconds, thereby making the mouse to learn that an electrical shock would be given if the mouse would stepped down to the floor.
Test trials were carried out 24 hours after the training trials. Each mouse was again placed on the platform, and the Step-Down latency was measured for maximally 300 seconds.

Data set [3] deals with patients suffering from dementia. Conditions: cited from earlier work.

Here are results for five compounds from patent US6803366B2, “Agent for improving learning or memory” (Toray Industries, Inc., priority 1999, dated 2004).

Molecules are shown by their SMILES. “Also recorded” adds a separate entry of the source.

`CN1CC[C@@]2(c3cccc(O)c3)Cc3nc4c(Br)cc(Br)cc4cc3C[C@@H]2C1` [Compound 8, (+)-7,9-dibromo-4a-(3-hydroxyphenyl)-2-methyl-1,2,3,4,4a,5,12,12a-octahydro-quinoline[2,3 g]isoquinoline]: the “latency required for escaping to the platform; ability of learning and memory of space” value in the data set with ICR male mice [1] (Compound 8 100 μg/kg subcutaneously 30 minutes before first trial of each session, vs saline, FIG. 3) is on record as “shortened”. In the case of `C[C@]12N[C@H](Cc3ccccc31)c1ccccc12` [MK-801], the “Step-Down latency in test trials (passive avoidance reaction)” value in the data set with ICR male mice [2] (MK-801 alone 0.1 mg/kg i.p., vs control group (solvent alone)) is reported as “significantly shorter than that of the control group; also recorded: significantly suppressed”. Consider `Nc1c2c(nc3ccccc13)CCCC2` [tacrine], for which, in data set [3] (clinical use), the side effects entry is “hepatic toxicity and choline-related side effects”. Besides, in data set [3] (dementia patients), the “improvement of intellectual function in cases in which the drug is administered” value was “improvement of intellectual function to a certain degree is observed in about half of the cases”.

With `COc1cc2c(cc1OC)C(=O)C(CC1CCN(Cc3ccccc3)CC1)C2` (stereo not shown) [Aricept], in data set [3] (dementia in light to medium degree), the “improvement in patients suffering from dementia” value is “improvement is observed in about half cases”.

Regarding `CN1CC[C@@]2(c3cccc(O)c3)Cc3nc4ccccc4cc3C[C@H]2C1` [Compound 1, (4aR, 12aR)-2-methyl-4a-(3-hydroxyphenyl)-1,2,3,4,4a,5,12,12a-octahydro-quinoline[2,3-g]isoquinoline], the “Step-Down latency in test trials: reversal of the shortening by MK-801” value in the data set with ICR male mice [2] (Compound 1 100 or 300 μg/kg s.c. 60 min before training, MK-801 0.1 mg/kg i.p. 30 min later, vs MK-801 alone) is given as “significantly reduced; also recorded: recovered”. In the data set on ICR male mice [1] (Compound 1 10, 30 or 100 μg/kg subcutaneously 30 minutes before first trial of each session, sessions 2-5, vs saline, FIG. 1), the “time period (latency) required for escaping to the platform; ability of learning and memory of space” value was “shortened dose-dependently from the second session; also recorded: ability of learning and memory of space was improved”.
